In ChEMBL document CHEMBL1201862, “PubChem BioAssay data set” (2004):
The source made the active and inactive calls.

Columns and labels:
[1] = target: T1, Streptokinase A (Streptococcus pyogenes serotype M1, UniProt P10520); test: S. pyogenes streptokinase expression inhibitors, potency, dose response, plasminogen activation absorbance, OD405 (AID 1914); format: functional, Streptococcus pyogenes M1 GAS;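 also: secreted streptokinase activity via plasminogen activation per viability signal from cell pellet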
T1 sequence (P10520 whole entry): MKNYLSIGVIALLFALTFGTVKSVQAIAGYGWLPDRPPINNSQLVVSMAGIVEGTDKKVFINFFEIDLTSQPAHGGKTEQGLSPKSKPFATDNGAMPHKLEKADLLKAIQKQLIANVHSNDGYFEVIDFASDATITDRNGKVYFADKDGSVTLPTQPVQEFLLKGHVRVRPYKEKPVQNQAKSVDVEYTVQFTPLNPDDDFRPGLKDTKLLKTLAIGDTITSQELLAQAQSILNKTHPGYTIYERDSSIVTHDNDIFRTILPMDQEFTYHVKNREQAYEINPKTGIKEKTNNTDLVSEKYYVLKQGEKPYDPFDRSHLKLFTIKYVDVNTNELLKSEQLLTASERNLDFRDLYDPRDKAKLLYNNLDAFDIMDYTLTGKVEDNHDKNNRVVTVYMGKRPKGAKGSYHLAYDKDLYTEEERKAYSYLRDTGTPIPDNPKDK

[2] = target: Cyclin-dependent kinase 5 (Homo sapiens, UniProt Q00535); format: functional;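 also: CDK5 measured as one member of a kinase profiling panel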
Sequence of Cyclin-dependent kinase 5 (Q00535 whole entry): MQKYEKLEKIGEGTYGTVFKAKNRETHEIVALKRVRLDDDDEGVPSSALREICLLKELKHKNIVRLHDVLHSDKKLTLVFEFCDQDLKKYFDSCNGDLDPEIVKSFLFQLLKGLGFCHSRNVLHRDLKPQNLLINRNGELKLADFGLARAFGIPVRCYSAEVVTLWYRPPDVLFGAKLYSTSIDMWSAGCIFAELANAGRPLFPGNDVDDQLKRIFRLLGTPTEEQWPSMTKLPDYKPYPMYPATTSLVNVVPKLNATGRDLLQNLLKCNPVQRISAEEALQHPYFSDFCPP

Structure (SMILES)	EC50 [1]	Ki [2]
CN1CCN(C(c2ccc(C(F)(F)F)cc2)c2cc(Cl)c3cccnc3c2O)CC1 (configuration not stated)	> 150 µM (not active)	
O=C(NC(CCO)c1ccccc1)c1ccc(-c2ccncc2)cc1 (configuration not stated)		> 3.16 µM (inactive)
